Results from a melting point compilation (Tetko et al.; mined from patent text by program, amines drawn as free bases though some values may be those of a salt).

Row | Structure (SMILES) | melting point [°C]
1 | COC=C(C(=O)OC)c1ccccc1C=Cc1cscn1 | 117
2 | CC(=O)Nc1nc(CCc2ccc(NC(=O)OC(C)(C)C)cc2)c(C(=O)Nc2ccccc2)s1 | 199 to 200
3 | c1cc(-c2ccc3nncn3n2)cs1 | 189 to 192
4 | COc1cc([N+](=O)[O-])c(N)cc1Cl | 128 to 129
5 | O=C(Nc1ccc(Oc2ccnc(NCCN3CCCC3)n2)c2ccccc12)c1cc(F)cc(N2CCCCC2)c1 | 92 to 94
6 | O=C(CCCCCCCCCCCCC(=O)Oc1cc(O)cc(O)c1)Oc1cc(O)cc(O)c1 | 140 to 145
7 | Cc1cc(C)cc(-c2nc(N)sc2-c2ccnc(NCc3ccccc3)c2)c1 | 99 to 102
8 | CN(C)c1nc2ncnc(NCc3ccco3)c2[nH]1 | 245 to 246
9 | CC(=O)Nc1nc2n(n1)Cc1ccccc1-2 | 258 to 259
10 | CCN1CCC(O)(c2cc(F)cc(F)c2)C1 (single isomer, unassigned; (-)) | 111 to 112
11 | CN(C)CCCC(O)c1ccc(F)cc1-c1ccccc1 (stereo not given) | 60 to 62
12 | COC1CCC2(C)C(=CC(=O)C3C2CCC2(C)C(OC(C)=O)CCC32)C1 (stereo not given) | 168 to 170
13 | CSCc1cc(=O)c2ccccc2o1 | 77 to 79
14 | Nc1cc(Cl)c(Sc2cccc3cnccc23)cc1N | 200 to 203
15 | CCOC(=O)C1C(C#N)C1(C)C (stereo not given) | 69
16 | N#CC=CC=CC(=O)C(F)(F)F | 123 to 126
17 | CC1Cc2ccc(Br)cc2C(c2ccc([N+](=O)[O-])cc2)=NN1C(N)=O (stereo not given) | 193 to 203
18 | CNc1cc(Br)nc(S(=O)(=O)c2ccc(N)cc2)c1 | 158 to 160
19 | Cc1cnc(C(=O)c2[nH]c3ccc(Cl)cc3c2CC(=O)O)s1 | 231 to 233
20 | CCn1cc(C)c(=S)[nH]c1=O | 205 to 206
21 | CCOC(=O)c1c(OCC)cc(C(F)(F)F)nc1C(F)(F)F | 57 to 59
22 | CC(/C=C/c1ccsc1-c1ccc2c(c1)C(C)(C)CCC2(C)C)=C\C(=O)O | 195 to 197
23 | CS(=O)(=O)c1ccc(C(=O)O)c(F)c1F | 214 to 215
24 | CC1=C(CCO)c2cc(F)ccc2C1 | 65 to 66.5
25 | CN(C)CCNC(=O)Cc1ccc(NC(=O)CCc2nc(-c3ccc4ccccc4c3)no2)cc1 | 173 to 174

Row | Structure (SMILES) | melting point [°C]
26 | CSc1ccc(C(=O)O)c(C(F)(F)F)c1F | 108 to 109
27 | CCOC(=O)C(=CNc1ccc(OCC)c(C)n1)C(=O)OCC | 132 to 138
28 | CC(C)(C)[Si](C)(C)N1C(=O)CC1SC(c1ccccc1)(c1ccccc1)c1ccccc1 (stereo not given) | 113 to 114
29 | CCCCCCCCCCCCCCOc1cccc(C(=O)Cl)c1 | 26 to 27
30 | COC1=CC[C@H]2[C@@H]3CCc4cc(OC)ccc4[C@H]3CC[C@]12C | 90.5 to 93
31 | COc1ccc(NS(=O)(=O)c2ccc(N3CCC(NC[C@H](O)COc4ccc(OCc5ccccc5)cc4)CC3)cc2)cc1OC | 113 to 121
32 | CCN(CC)C(=O)CCc1nc(-c2ccccc2)cc2ccccc12 | 58
33 | CC(=NOCCOc1ccc(C[C@H](Oc2ccc(C)cc2)C(=O)O)cc1)c1ccc(-c2ccccc2)cc1 | 128 to 130
34 | CCCCc1nc(Cl)c(CN2CCN(c3ccccc3OC)CC2)n1Cc1ccc(-c2ccccc2-c2nnn[nH]2)cc1 | 154 to 158
35 | Nc1c(Nc2ccc(O)cc2)ncnc1-c1ccc(C(F)(F)F)cc1F | 194 to 196
36 | CN(C)S(=O)(=O)c1cccc2c1Sc1ccc(OC3CCCCO3)cc1N2CCCN1CCC(CCO)CC1 (stereo not given) | 129 to 131
37 | O=C1NC(O)c2cc(Br)ccc21 (stereo not given) | 258 to 261
38 | O=C(O)c1ccc(Cn2ccn(C3CCc4ccccc4C3)c2=S)cc1 (stereo not given) | 211 to 212
39 | O=C(NC1CC1)c1cc2[nH]cnc2c(Cl)c1NC(=O)c1cc(C(F)(F)F)nn1-c1ncccc1Cl | 198 to 201
40 | CC1CCCC(C)N1Cc1ccc(N)cc1 (stereo not given) | 112 to 115
41 | N#Cc1c2c(c3c(c1N1CCCCC1)CCc1ccccc1-3)-c1ccccc1C2 | 170 to 172
42 | O=C1CNC(=O)N1c1cc(Cl)cc(Cl)c1 | 199
43 | CC(C(O)c1ccc(OCc2ccccc2)c(OCc2ccccc2)c1)N1CCC(n2c(=O)[nH]c3ccccc32)CC1 (stereo not given) | 146 to 148
44 | CC(C)(C)c1ccc2oc(C(=O)COc3ccc(C(=O)O)cc3)cc2c1 | 210 to 211
45 | Cc1ccc2c(c1)C1c3cc4c(cc3OCC1NC2=O)OCO4 (stereo not given) | > 250
46 | CC(=O)N1c2ccc(-c3nnn[nH]3)cc2C(Nc2ccc(Cl)cc2)CC1C (stereo not given) | 190 to 191
47 | Cc1sc(S(N)(=O)=O)cc1NC(=O)c1cnn2c(C(F)F)cc(-c3ccc(C(F)(F)F)cc3)nc12 | 313
48 | COC(=O)C(CO)Nc1ccccc1[N+](=O)[O-] (racemic) | 138 to 140
49 | O=[N+]([O-])c1ccc2oc(-c3ccc(CN4CCOCC4)s3)nc2c1 | 149 to 151
50 | CC(=O)OC1OCC[C@@H]1NC(=O)[C@H](CC(C)C)NC(=O)[C@H](CC(C)C)NC(=O)c1ccc2c(c1)Nc1ccccc1S2 (stereo not given in full) | 121 to 122
